According to the supplement of paper PMC10331698:
± gives the standard deviation of the averaged measurements.

Columns and labels:
Assay in all cases: level (log10 ratio to DMSO vehicle control); higher = higher biomarker level / cell amount than vehicle control
[1] = compound: O=S(=O)(O)C(F)(F)C(F)(F)C(F)(F)C(F)(F)C(F)(F)C(F)(F)C(F)(F)F [Perfluoroheptanesulfonic acid] (in DMSO)
Experimental: (§1)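 BioMAP Diversity Plus panel of 12 human primary cell co-culture systems (3C, 4H, LPS, SAg, BT, BF4T, BE3C, CASM3C, HDF3CGF, KF3CT, MyoF, Mphg). Compounds were added 1 h before stimulation and left for 24 h (MyoF 48 h; BT 72 h for soluble read-outs or 6 d for IgG). Biomarkers were read by ELISA, cytotoxicity by SRB, PBMC viability and proliferation by Alamar Blue. Each well value was divided by the mean of 8 DMSO control wells on the same plate and log10 transformed; duplicate blinded samples were tested at 4 concentrations.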

[2] = compound: OCC(F)(F)OC(F)(F)C(F)(F)OC(F)(F)C(F)(F)OC(F)(F)CO [1H,1H,11H,11H-Perfluorotetraethylene glycol] (in DMSO)
Experimental: as §1

Octafluoroadipic acid = compound: O=C(O)C(F)(F)C(F)(F)C(F)(F)C(F)(F)C(=O)O [Octafluoroadipic acid] (in DMSO)
Experimental: as §1

[3] = compound: O=C(O)C(F)(OC(F)(F)C(F)(F)C(F)(F)F)C(F)(F)F [Ammonium perfluoro-2-methyl-3-oxahexanoate] (in Water)
Experimental: as §1

[4] = compound: C[C@@H]1C[C@H]2[C@@H]3CCC4=CC(=O)C=C[C@]4(C)[C@@]3(F)[C@@H](O)C[C@]2(C)[C@@]1(O)C(=O)COP(=O)(O)O [Dexamethasone sodium phosphate] (in DMSO)
Experimental: as §1

[5] = compound: O=S(=O)(O)CCC(F)(F)C(F)(F)C(F)(F)C(F)(F)C(F)(F)C(F)(F)C(F)(F)C(F)(F)F [8:2 Fluorotelomer sulfonic acid] (in DMSO)
Experimental: as §1

Row | Test System | level (log10) ([1]; 1500 nM) | level (log10) ([1]; 4400 nM) | level (log10) ([1]; 13000 nM) | level (log10) ([1]; 40000 nM) | level (log10) ([2]; 6700 nM) | level (log10) ([2]; 20000 nM) | level (log10) ([2]; 60000 nM) | level (log10) (Octafluoroadipic acid; 6700 nM) | level (log10) (Octafluoroadipic acid; 20000 nM) | level (log10) (Octafluoroadipic acid; 60000 nM) | level (log10) ([3]; 6700 nM) | level (log10) ([3]; 20000 nM) | level (log10) ([3]; 60000 nM) | level (log10) ([4]; 1500 nM) | level (log10) ([4]; 4400 nM) | level (log10) ([4]; 13000 nM) | level (log10) ([4]; 40000 nM) | level (log10) ([5]; 6700 nM) | level (log10) ([5]; 20000 nM) | level (log10) ([5]; 60000 nM)
1 | MyoF:bFGF | 0.021 ± 0.0071 | 0.0185 ± 0.005 | 0.0105 ± 0.00071 | 0.039 ± 0.02 | 0.0045 ± 0.00071 | 0.0045 ± 0.0092 | 0.004 ± 0.011 | -0.0035 ± 0.00071 | 0.002 ± 0.0057 | 0.0055 ± 0.0092 | 0.017 ± 0.0099 | 0.006 ± 0.0014 | 0.0005 ± 0.0092 | -0.035 ± 0.042 | -0.0165 ± 0.035 | -0.042 ± 0.031 | -0.028 ± 0.0042 | 0.0045 ± 0.012 | 0.006 ± 0.023 | 0.0265 ± 0.0021
2 | lMphg:CCL2/MCP-1 | -0.009 ± 0.03 | -0.004 ± 0.047 | 0.003 ± 0.0042 | 0.035 ± 0.0028 | -0.0285 ± 0.032 | -0.079 ± 0.034 | -0.073 ± 0.052 | 0.0135 ± 0.013 | -0.008 ± 0.016 | 0.028 ± 0.059 | 0.0165 ± 0.005 | 0.0125 ± 0.012 | 0.038 ± 0.027 | -0.0595 ± 0.0078 | -0.103 ± 0.0064 | -0.117 ± 0.021 | -0.126 ± 0.0064 | 0.0075 ± 0.019 | -0.019 ± 0.016 | 0.0155 ± 0.00071
3 | lMphg:CCL3/MIP-1alpha | -0.04 ± 0.0071 | -0.0135 ± 0.047 | -0.0225 ± 0.064 | -0.014 ± 0.037 | -0.051 ± 0.051 | -0.0435 ± 0.026 | 0.015 ± 0.055 | -0.035 ± 0.024 | -0.0045 ± 0.023 | 0.002 ± 0.018 | -0.0685 ± 0.035 | -0.067 ± 0.0014 | -0.0185 ± 0.054 | -0.139 ± 0.016 | -0.173 ± 0.043 | -0.254 ± 0.06 | -0.209 ± 0.055 | 0.0035 ± 0.03 | 0.0095 ± 0.026 | 0.0065 ± 0.032
4 | lMphg:CD40 | -0.034 ± 0.021 | -0.007 ± 0.034 | -0.0285 ± 0.043 | -0.0525 ± 0.028 | -0.0235 ± 0.019 | -0.0385 ± 0.013 | -0.0755 ± 0.03 | -0.0065 ± 0.0021 | -0.0015 ± 0.0021 | -0.025 ± 0.048 | -0.0295 ± 0.0064 | -0.045 ± 0.0099 | -0.049 ± 0.011 | -0.0185 ± 0.026 | -0.0375 ± 0.0092 | -0.038 ± 0.013 | -0.103 ± 0.04 | -0.026 ± 0.023 | -0.052 ± 0.0028 | -0.0995 ± 0.019
5 | lMphg:CD62E/E-Selectin | -0.029 ± 0.028 | -0.0015 ± 0.046 | -0.0135 ± 0.054 | 0.0415 ± 0.043 | -0.056 ± 0.037 | -0.0635 ± 0.081 | -0.072 ± 0.086 | -0.0025 ± 0.036 | -0.0275 ± 0.057 | -0.028 ± 0.064 | 0.013 ± 0.0071 | 0.002 ± 0.0071 | 0.0245 ± 0.013 | -0.147 ± 0.0028 | -0.212 ± 0.0042 | -0.239 ± 0.089 | -0.292 ± 0.061 | 0.0165 ± 0.0092 | 0.048 ± 0.0042 | 0.103 ± 0.0057
6 | lMphg:CD69 | -0.014 ± 0.055 | -0.008 ± 0.027 | -0.0145 ± 0.00071 | -0.0155 ± 0.018 | -0.0285 ± 0.023 | -0.0155 ± 0.016 | 0.0065 ± 0.06 | 0.0095 ± 0.037 | 0.0035 ± 0.081 | -0.008 ± 0.054 | -0.0435 ± 0.011 | 0 ± 0.013 | -0.0185 ± 0.015 | 0.039 ± 0.014 | -0.007 ± 0.017 | -0.0155 ± 0.029 | -0.0585 ± 0.022 | -0.0695 ± 0.023 | -0.059 ± 0.0028 | -0.173 ± 0.025
7 | lMphg:CD106/VCAM-1 | -0.0135 ± 0.0035 | -0.0285 ± 0.021 | -0.0115 ± 0.016 | -0.019 ± 0.0014 | -0.015 ± 0.024 | 0.009 ± 0.05 | 0 ± 0.04 | -0.007 ± 0.02 | 0.0065 ± 0.011 | 0.0055 ± 0.005 | -0.0195 ± 0.0035 | -0.013 ± 0.0028 | -0.0085 ± 0.0035 | -0.018 ± 0.0071 | -0.039 ± 0.0028 | -0.0615 ± 0.013 | -0.086 ± 0.0042 | -0.0355 ± 0.005 | -0.042 ± 0.0071 | -0.08 ± 0.0057
8 | lMphg:CXCL8/IL-8 | -0.001 ± 0.038 | -0.0165 ± 0.0078 | -0.018 ± 0.023 | 0.074 ± 0.069 | -0.022 ± 0.017 | -0.034 ± 0.017 | -0.0265 ± 0.032 | 0.009 ± 0.0099 | -0.0015 ± 0.028 | 0.0495 ± 0.091 | 0.137 ± 0.0021 | 0.194 ± 0.0078 | 0.261 ± 0.025 | -0.108 ± 0.0064 | -0.138 ± 0.015 | -0.136 ± 0.011 | -0.129 ± 0.034 | 0.001 ± 0.0085 | 0.022 ± 0.013 | 0.0775 ± 0.0035
9 | lMphg:IL-1alpha | 0.0075 ± 0.036 | -0.0045 ± 0.028 | 0 ± 0.042 | 0.073 ± 0.044 | 0.012 ± 0.0057 | 0.0065 ± 0.04 | 0.0605 ± 0.053 | -0.0495 ± 0.013 | -0.041 ± 0.027 | 0.039 ± 0.031 | 0.0825 ± 0.059 | 0.079 ± 0.055 | 0.11 ± 0.021 | -0.0345 ± 0.005 | -0.0335 ± 0.0092 | -0.102 ± 0.05 | -0.096 ± 0.0099 | -0.019 ± 0.014 | -0.011 ± 0.028 | -0.035 ± 0.05
10 | lMphg:M-CSF | -0.0065 ± 0.023 | -0.01 ± 0.037 | -0.0285 ± 0.039 | -0.0285 ± 0.0035 | -0.0215 ± 0.0021 | -0.0385 ± 0.0078 | -0.0575 ± 0.044 | -0.012 ± 0.0071 | -0.0255 ± 0.0035 | -0.006 ± 0.017 | -0.084 ± 0.021 | -0.0725 ± 0.00071 | -0.0815 ± 0.011 | -0.022 ± 0.034 | -0.031 ± 0.058 | -0.0455 ± 0.028 | -0.0495 ± 0.0021 | -0.0075 ± 0.033 | -0.014 ± 0.013 | 0.012
11 | lMphg:SRB | -0.01 ± 0.013 | -0.0055 ± 0.011 | 0.0015 ± 0.0035 | 0.003 ± 0.0057 | -0.009 ± 0.011 | -0.024 ± 0.0042 | -0.047 ± 0.0099 | -0.023 ± 0.017 | -0.0045 ± 0.00071 | 0.001 ± 0.023 | -0.043 ± 0.0014 | -0.0435 ± 0.00071 | -0.0395 ± 0.0035 | -0.0045 ± 0.0092 | -0.0125 ± 0.0078 | -0.006 ± 0.0014 | -0.0265 ± 0.0021 | -0.006 ± 0.02 | -0.013 ± 0.017 | -0.029 ± 0.0057
12 | lMphg:SRB-Mphg | -0.0005 ± 0.016 | -0.0025 ± 0.036 | 0.002 ± 0.0099 | -0.0005 ± 0.036 | 0 ± 0.0042 | -0.011 ± 0.0028 | -0.077 ± 0.0028 | -0.026 ± 0.016 | 0.0135 ± 0.022 | 0.0265 ± 0.029 | -0.0535 ± 0.036 | -0.046 ± 0.041 | -0.054 ± 0.041 | -0.0225 ± 0.022 | -0.0625 ± 0.005 | -0.0715 ± 0.018 | -0.0805 ± 0.057 | 0.003 ± 0.0028 | -0.012 ± 0.014 | -0.027 ± 0.013
13 | lMphg:sIL-10 | -0.042 ± 0.018 | -0.109 ± 0.048 | -0.101 ± 0.023 | -0.239 ± 0.072 | -0.0385 ± 0.056 | -0.0965 ± 0.066 | -0.306 ± 0.025 | -0.067 ± 0.014 | -0.0425 ± 0.077 | -0.0425 ± 0.046 | -0.36 ± 0.035 | -0.328 ± 0.018 | -0.467 ± 0.13 | -0.286 ± 0.05 | -0.503 ± 0.054 | -0.62 ± 0.056 | -0.646 ± 0.054 | -0.078 ± 0.024 | -0.216 ± 0.0057 | -0.6535 ± 0.0064
